Assay results from patent publication US6706740B2, “Fungicidal heterocyclic aromatic amides and their compositions, methods of use and preparation” (Dow AgroSciences LLC, priority 1999, dated 2004).

What was measured:
[1] = test system: Leptosphaeria nodorum—LEPTNO; test: Glume Blotch of Wheat, in vivo whole plant, 24 Hour Protectant; conditions: 100 ppm spray, wheat, 24 hour protectant, control of fungal infection vs untreated plants; for pest or weed control at 100 ppm: Leptosphaeria, read-out: LEPTNO in vivo 1 Day Protectant
[2] = test system: Phytophthora infestans—PHYTIN; test: whole plant or invertebrate; assay type: in vivo; conditions: Phytophthora, in Solanum lycopersicum, 24 h, read-out: PHYTIN in vivo 1 Day Protectant
[3] = test system: Magnaporthe grisea (Pyricularia oryzae—PYRIOR); test: microbe, parasite or virus in culture; assay type: cell-based; conditions: Pyricularia oryzae, read-out: PYRIOR in vitro Growth Inhibition
[4] = test system: Puccinia recondita—PUCCRT; test: Brown Rust of Wheat, in vivo whole plant, 24 Hour Protectant; conditions: Puccinia; 100 ppm spray, wheat, 24 hour protectant; control of fungal infection vs untreated plants; read-out: PUCCRT in vivo 1 Day Protectant
Erysiphe graminis—ERYSGT = test: Powdery Mildew of Wheat, in vivo whole plant, 24 Hour Protectant; conditions: 100 ppm spray, wheat, 24 hour protectant, control of fungal infection vs untreated plants; for pest or weed control at 100 ppm: Erysiphe, read-out: ERYSGT in vivo 1 Day Protectant
[5] = test system: Rhizoctonia solani (RHIZSO); test: microbe, parasite or virus in culture; assay type: cell-based; conditions: Rhizoctonia solani, read-out: RHIZSO in vitro Growth Inhibition
[6] = test system: Mycosphaerella graminicola (Septoria tritici—SEPTTR); test: In vitro fungal growth inhibition, Mycosphaerella graminicola (SEPTTR); assay type: cell-based; conditions: Zymoseptoria tritici; 25 ppm in growth medium; read-out: SEPTTR in vitro Growth Inhibition
[7] = test system: Phytophthora infestans (PHYTIN); test: microbe, parasite or virus in culture; assay type: cell-based; conditions: Phytophthora infestans, read-out: PHYTIN in vitro Growth Inhibition
Septoria tritici—SEPTTR = test: Leaf Blotch of Wheat, in vivo whole plant, 24 Hour Protectant; conditions: Zymoseptoria tritici, 24 h, 100 ppm spray, wheat, 24 hour protectant; control of fungal infection vs untreated plants; read-out: SEPTTR in vivo 1 Day Protectant
[8] = test system: Stagonospora nodorum (Leptosphaeria nodorum—LEPTNO); test: In vitro fungal growth inhibition, Stagonospora nodorum (LEPTNO); assay type: cell-based; conditions: Leptosphaeria; 25 ppm in growth medium; read-out: LEPTNO in vitro Growth Inhibition
Ustilago maydis (USTIMA) = test: microbe, parasite or virus in culture; assay type: cell-based; conditions: Mycosarcoma maydis, read-out: USTIMA in vitro Growth Inhibition

| SMILES | LEPTNO in vivo 1 Day Protectant [1] | pest or weed control at 100 ppm [2] | inhibition at 25 ppm [3] | pest or weed control at 100 ppm [4] | ERYSGT in vivo 1 Day Protectant (Erysiphe graminis—ERYSGT) | inhibition at 25 ppm [5] | melting point | inhibition at 25 ppm [6] | inhibition at 25 ppm [7] | pest or weed control at 100 ppm (Septoria tritici—SEPTTR) | inhibition at 25 ppm [8] | inhibition at 25 ppm (Ustilago maydis (USTIMA)) | pest or weed control at 100 ppm (Erysiphe graminis—ERYSGT) | pest or weed control at 100 ppm [1] |
| --- | --- | --- | --- | --- | --- | --- | --- | --- | --- | --- | --- | --- | --- | --- |
| COc1ccnc(C(=O)N[C@H]2COC(=O)[C@H](CC3CCCC3)[C@@H](OC(=O)C(C)C)[C@H](C)OC2=O)c1O [Compound 402] | + + | < 25% | < 80% | 25 to 74% | + + | < 80% | 182 to 184 °C | < 80% | < 80% | 25 to 74% | > 80% | < 80% |  |  |
| COc1ccnc(C(=O)N[C@H]2COC(=O)[C@H](Oc3ccccc3)[C@@H](OC(=O)C(C)C)[C@H](C)OC2=O)c1O [Compound 403] | + + | < 25% | < 80% | 25 to 74% |  | < 80% | 194 to 195 °C | > 80% | < 80% | 25 to 74% | > 80% | < 80% | < 25% |  |
| COc1ccnc(C(=O)Nc2ccc(Cc3cccc(C(F)(F)F)c3)cc2)c1O [Compound 404] |  | < 25% | < 80% | 25 to 74% |  | < 80% | 126 to 127 °C | < 80% | < 80% | 25 to 74% | < 80% | > 80% | 25 to 74% | 25 to 74% |
| COc1ccnc(C(=O)Nc2ccc(Nc3cccc(C(F)(F)F)c3)cc2)c1O [Compound 410] |  | < 25% | < 80% | < 25% |  | < 80% | 204 to 205 °C | < 80% | < 80% | < 25% | < 80% | < 80% | < 25% | 25 to 74% |
| COCc1cc(Oc2ccc(C(F)(F)F)cc2)ccc1NC(=O)c1nccc(OC)c1O [Compound 426] |  | 25 to 74% | > 80% | 25 to 74% |  | > 80% | 125 to 127 °C | > 80% | > 80% | 25 to 74% | > 80% | > 80% | 25 to 74% | < 25% |
| CCOC(=O)c1cc(Oc2ccc(C(F)(F)F)cc2)ccc1NC(=O)c1nccc(OC)c1O [Compound 427] |  | < 25% | < 80% | 25 to 74% |  | < 80% | 145 to 147 °C | < 80% | < 80% | 25 to 74% | < 80% | < 80% | < 25% | 25 to 74% |
| COc1ccnc(C(=O)Nc2ccc(Oc3ccc(OC(=O)C(C)C)cc3)cc2)c1O [Compound 436] |  | < 25% | < 80% | < 25% |  | < 80% | 109 to 110.5 °C | < 80% | < 80% | 25 to 74% | < 80% | < 80% | < 25% | 25 to 74% |
| COc1ccnc(C(=O)Nc2cccc(Sc3ccc(C(F)(F)F)cc3)c2)c1O [Compound 444] |  | < 25% | < 80% | 25 to 74% |  | < 80% | 133 to 134 °C | < 80% | < 80% | 25 to 74% | < 80% | < 80% | < 25% | 25 to 74% |
